From ChEMBL document CHEMBL1201862, “PubChem BioAssay data set” (2004) come the findings set out here.

Common to all, as to assay: inhibition of tumour cell growth, NCI panel, 48 h
For test [1], the system named is CCRF-CEM.
In test [2] the test system is SF-539.
In test [3] the test system is MDA-N.
Test [4] has as its system IGROV-1.
Test [5] concerns CAKI-1.
Test [6] has as its system K562.
Test [7] deals with RPMI-8226.
Test [8] has as its system T47D.
Test [9] concerns SK-MEL-2.
In test [10] the test system is M14.
The test system of test [11] is RXF 393.
The subject of test [12] is SF-268.
Test [13] has as its system KM12.
In test [14] the test system is DLD-1.
Test [15] has as its system 786-0.
For test [16], the system named is TK-10.
The test system of test [17] is OVCAR-5.
Test [18] has as its system NCI-H522.
Test [19] deals with NCI-H460.
Test [20] deals with BT-549.

“And” between values parts separate entries of the source, which are not always exact repeats. Equal values may be shown once.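 Exposure lasted 48 hours, with cells grown in 96-well plates and compounds tested at five concentrations. GI50 = concentration required for 50% inhibition of growth.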 The source made the active and inactive calls. Rule as the data show it: active = GI50 up to about 1.1 µM and inactive = higher.

Regarding `Nc1ncnc2c1ncn2C1CC(O)C(CO)O1` (configuration not stated), the GI50 in [1] is > 100 µM (inactive) and 70.5 µM (inactive); in test [2], > 100 µM (inactive); in test [3] it was > 100 µM (inactive); in test [4], > 100 µM (inactive); in test [5], > 100 µM (inactive); in test [6], > 100 µM (inactive). Further, the GI50 in [7], in test [8], in [9], in [10], in test [11] and in [12] was > 100 µM (inactive) throughout. Moreover, the GI50 is 62.7 µM (inactive) in test [13]; > 100 µM (inactive) in [14]; > 100 µM (inactive) in test [15]; > 100 µM (inactive) in test [16]; > 100 µM (inactive) in [17]; > 100 µM (inactive) in test [18]. In test [19], the GI50 is > 100 µM (inactive).
For `COc1cc2c(cc1O)CCN[C@@]21CS[C@H]2c3c(OC(C)=O)c(C)c4c(c3C(COC1=O)N1C2C2c3c(cc(C)c(OC)c3O)CC([C@@H]1O)N2C)OCO4` (some centres not stated), the GI50 is < 0.0001 µM (active) in test [1]; < 0.0001 µM (active) in [2]; < 0.0001 µM (active) in test [3]; < 0.0001 µM (active) in [4]; < 0.0001 µM (active) in [5]; 0.000324 µM (active) in test [6]. For the same molecule, the GI50 in test [7] was 0.00191 µM (active); in [8] it was 0.00296 µM (active); in test [9], < 0.0001 µM (active); in test [10], < 0.0001 µM (active); in [11], < 0.0001 µM (active); in test [12], < 0.0001 µM (active). Also, the GI50 is < 0.0001 µM (active) in test [13]; < 1e-06 µM (active) in [14]; 0.0001 µM (active) in test [15]; < 0.0001 µM (active) in test [16]; 0.00181 µM (active) in [20]; 0.0001 µM (active) in [17]. The GI50 in test [18] and in [19] was < 0.0001 µM (active) each time.
Turning to `CC1(C)CC(=O)C(C(=O)Nc2cccs2)=C(O)C1`, the GI50 in test [1] is 23 µM (inactive); in test [2] it was 36.2 µM (inactive); in test [4] it was 32.9 µM (inactive); in test [5], 14.6 µM (inactive); in test [6], 28.1 µM (inactive); in test [7] it was 31 µM (inactive). In addition, the GI50 in test [9] is 35.9 µM (inactive); in [10], 36.7 µM (inactive); in test [11] it was 29.9 µM (inactive); in test [12] it was > 100 µM (inactive); in [13], 38.1 µM (inactive); in test [14], 39.5 µM (inactive). For the same molecule, the GI50 in [15] is 49.9 µM (inactive); in [16] it was 64.6 µM (inactive); in test [17] it was 44 µM (inactive); in test [18], 37.2 µM (inactive); in test [19], 35.9 µM (inactive).
In the case of `COc1ccc(/C=C2\CCC(Cc3ccccc3)(CN(C)C)C2=O)cc1` (configuration not stated), the GI50 in test [1] was 27.9 µM (inactive); in [2] it was 57 µM (inactive); in test [3] it was 38.3 µM (inactive); in test [4], > 100 µM (inactive); in test [5] it was 48 µM (inactive); in test [6], 26.4 µM (inactive). Moreover, the GI50 in [7] was 22.2 µM (inactive); in test [8], 46.7 µM (inactive); in [9] it was 60.4 µM (inactive); in test [10], 26.7 µM (inactive); in test [11], 35.1 µM (inactive); in test [12], 69.5 µM (inactive). The GI50 in test [13] was 41.1 µM (inactive); in test [14], 26.4 µM (inactive); in [15], 41.7 µM (inactive); in test [16], > 100 µM (inactive); in test [20], 68.5 µM (inactive); in [17], > 96.2 µM (inactive). In addition, the GI50 in test [18] was 31.8 µM (inactive); in [19], 67.3 µM (inactive).
Consider `Cc1cccc2[s+]snc12`, for which the GI50 in [1] was 23.9 µM (inactive); in test [2], > 100 µM (inactive); in [4] it was > 100 µM (inactive); in test [5] it was > 78.2 µM (inactive); in test [6] it was 24.9 µM (inactive); in test [7] it was > 42.4 µM (inactive). Moreover, the GI50 in test [9] was > 100 µM (inactive); in [10], > 68.5 µM (inactive); in test [11], 47.3 µM (inactive); in [12] it was > 100 µM (inactive); in test [13], > 100 µM (inactive); in test [14], 26.7 µM (inactive). The GI50 in test [15] is > 76.9 µM (inactive); in [16], > 100 µM (inactive); in [17] it was > 100 µM (inactive); in test [18], 18.4 µM (inactive); in test [19], > 100 µM (inactive).
Take `COC(=O)C1C(=O)NC2(C)CC1c1ccccc1O2` (configuration not stated): the GI50 in test [1], in test [2], in test [4], in test [5], in test [6] and in test [7] was > 100 µM (inactive) each time. Further, the GI50 was > 100 µM (inactive) in [9]; > 10 µM (inactive) in test [10]; > 100 µM (inactive) in test [11]; > 100 µM (inactive) in test [12]; > 100 µM (inactive) in test [13]; > 100 µM (inactive) in [14]. Moreover, the GI50 in [15], in test [16], in test [17], in test [18] and in [19] was > 100 µM (inactive) in each case.
Turning to `CC(=O)CC(=O)OC1CC(C)CCC1C(C)C` (configuration not stated), the GI50 in test [1] is 11.7 µM (inactive); in test [2], 36.8 µM (inactive); in [4], 76.6 µM (inactive); in [5], > 100 µM (inactive); in [6] it was 16 µM (inactive); in test [7], 15 µM (inactive). Moreover, the GI50 in [9] is 28.4 µM (inactive); in [10], > 100 µM (inactive); in test [11], 72.4 µM (inactive); in [12], 45.7 µM (inactive); in test [13] it was 37.8 µM (inactive); in test [14], 24.7 µM (inactive). The GI50 was > 100 µM (inactive) in [15]; > 100 µM (inactive) in test [16]; > 100 µM (inactive) in test [17]; 39.7 µM (inactive) in test [18]; 53.3 µM (inactive) in [19].
